Data taken from PubChem BioAssay (NCI).
Several values for one entry are separate records, joined by “and”; a condition that tells them apart may be missing. Equal entries are not always repeated.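 Tested at 5 concentrations; 48 h exposure; 96-well plates; endpoints linearly interpolated, else capped at highest concentration. The concentration for 50% growth inhibition is given as GI50. TGI marks complete inhibition of growth.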

Experiments:
Assay in all cases: DTP human tumour cell line panel, 48 h
HCC-2998 colon = test system: HCC-2998 colon
HS 578T breast = test system: HS 578T breast
HL-60(TB) leukemia = test system: HL-60(TB) leukemia
CCRF-CEM leukemia = test system: CCRF-CEM leukemia
UACC-62 melanoma = test system: UACC-62 melanoma
SK-MEL-5 melanoma = test system: SK-MEL-5 melanoma
MDA-MB-435 = test system: MDA-MB-435
SK-OV-3 ovarian = test system: SK-OV-3 ovarian

| SMILES | GI50 (HCC-2998 colon) | TGI (HCC-2998 colon) | GI50 (HS 578T breast) | TGI (HS 578T breast) | GI50 (HL-60(TB) leukemia) | TGI (HL-60(TB) leukemia) | GI50 (CCRF-CEM leukemia) | GI50 (UACC-62 melanoma) | TGI (UACC-62 melanoma) | GI50 (SK-MEL-5 melanoma) | TGI (SK-MEL-5 melanoma) | GI50 (MDA-MB-435) | TGI (MDA-MB-435) | GI50 (SK-OV-3 ovarian) | TGI (SK-OV-3 ovarian) | TGI (CCRF-CEM leukemia) |
| --- | --- | --- | --- | --- | --- | --- | --- | --- | --- | --- | --- | --- | --- | --- | --- | --- |
| CN(C)CCN=c1nc2c(c(N)n1-c1ccccc1)c(=S)n(-c1ccccc1)c(=S)n2-c1ccccc1 | 2.05 µM | 5.33 µM | 1.98 µM | 9.51 µM | 1.52 µM | 3.3 µM | 4.68 µM | 1.78 µM | 3.41 µM | 1.49 µM | 2.93 µM | 1.75 µM | 3.9 µM | 6.96 µM | 20.9 µM | – |
| CCS(=O)(=O)c1cccc(-c2cc(C(=O)NC3CCN(C)CC3)c(C)c3[nH]c4ncc(C)cc4c23)c1 | 0.177 µM and 0.703 µM | 2.14 µM and 4.18 µM | 0.275 µM and 0.109 µM | 2.6 µM and 0.424 µM | 0.179 µM and 0.442 µM | 4.22 µM and 3.97 µM | 0.101 µM and 0.0822 µM | 0.452 µM and 0.372 µM | 2.13 µM and 2.09 µM | 2.29 µM and 0.798 µM | > 9.22 µM and 2.65 µM | 0.722 µM and 0.304 µM | > 10 µM and 4.54 µM | 0.624 µM and 0.771 µM | 4.31 µM and 7.31 µM | > 10 µM and 38.1 µM |
| CCOC1=C/C(=N\Nc2ccc([N+](=O)[O-])cc2)CCC1 | – | – | – | > 100 µM | – | > 100 µM | – | – | 67.4 µM | – | 73.3 µM | – | > 100 µM | – | > 100 µM | – |
| CC(C)(C)OC(=O)NCCCCCCCCCCCCn1c2c(c3ccccc3c1=O)C(=O)c1ccccc1-2 | > 100 µM | > 100 µM | 11.9 µM | 63.1 µM | > 100 µM | > 100 µM | 43.3 µM | 27.4 µM | > 100 µM | > 100 µM | > 100 µM | > 100 µM | > 100 µM | 22.9 µM | 74.1 µM | > 100 µM |
| COc1ccc(N=c2nc3sc4cc(Cl)ccc4n3c(N)c2C#N)cc1 | – | – | 1.27 µM | – | 11.4 µM | > 94.9 µM | 11 µM | 3.35 µM | > 38.5 µM | 1.64 µM | 3.42 µM | 3.98 µM | > 100 µM | 5.9 µM | > 100 µM | > 100 µM |
| O=C1c2ccccc2-c2c1c1ccccc1c(=O)n2CCNCCNCCNCCNCCn1c2c(c3ccccc3c1=O)C(=O)c1ccccc1-2 | – | – | – | – | 0.216 µM | 2.08 µM | 0.125 µM | 0.447 µM | 1.71 µM | 0.323 µM | 1.47 µM | – | – | – | – | 2.65 µM |
| CCCCC[C@H]1C/C=C2/C(=O)C=C[C@@H]2C/C=C\CCCC(=O)O1 | 0.096 µM | 0.179 µM | 0.403 µM | 16.8 µM | 0.12 µM | 0.343 µM | 0.106 µM | – | – | 0.0844 µM | 0.168 µM | 0.169 µM | 0.588 µM | 0.364 µM | 6.11 µM | 5 µM |
| CCN(CC)c1ccc(/C=N/N=C(N)N)cc1 | 4.68 µM | 17.3 µM | 3.68 µM | 26.5 µM | 2.84 µM | 7.95 µM | 3.5 µM | 4.23 µM | 18.1 µM | 3.16 µM | 13.4 µM | 0.668 µM | 3.04 µM | 3.47 µM | 14 µM | 67.7 µM |
| COc1ccc(-c2cn3ccnc3c(-c3ccc(Cl)cc3)n2)cc1 | – | – | 3.83 µM | 48.2 µM | 5.14 µM | > 100 µM | – | 19.4 µM | > 100 µM | 4.06 µM | 21.1 µM | 2.56 µM | 8.62 µM | 20.7 µM | > 100 µM | – |
| O=C(OCC1=CC(=O)c2ccccc2C1=O)c1ccccc1 | 6.14 µM | 18.8 µM | 14.3 µM | 51.7 µM | 3.72 µM | 14.1 µM | 6.73 µM | 3.27 µM | 9.02 µM | 1.31 µM | 2.68 µM | 1.98 µM | 3.66 µM | – | – | 35.4 µM |
| CSCc1ncc(-c2ccc(C(F)(F)F)cc2)c(NC2CCCCCC2)n1 | > 10 µM | > 10 µM | – | – | > 10 µM | > 10 µM | > 10 µM | > 10 µM | > 10 µM | > 10 µM | > 10 µM | > 10 µM | > 10 µM | > 10 µM | > 10 µM | > 10 µM |
| CSC(=S)NCc1cn(C)c2ccccc12 | 25.1 µM | 98.7 µM | 26.3 µM | 73.6 µM | – | – | 24.4 µM | 20.1 µM | 42.7 µM | 13.9 µM | 32.8 µM | 27.8 µM | > 100 µM | 30.2 µM | > 100 µM | > 100 µM |
| NC(=S)c1cccc(C2Nc3ccccc3O2)c1 (stereo not given) | – | – | – | > 100 µM | – | > 100 µM | – | – | 96.2 µM | – | > 100 µM | – | > 100 µM | – | > 100 µM | – |
| CN(CCOc1ccc(NS(C)(=O)=O)cc1)CCc1ccc(NS(C)(=O)=O)cc1 | > 100 µM | > 100 µM | > 100 µM | > 100 µM | > 100 µM | > 100 µM | > 100 µM | > 100 µM | > 100 µM | – | – | > 100 µM | > 100 µM | – | – | > 100 µM |
| COc1c(OC2OC(C)C(O)C(O)C2O)c(OC)c2oc(-c3ccc(O)cc3)cc(=O)c2c1O (stereo not given) | 37.2 µM | > 100 µM | 29.8 µM | > 100 µM | – | – | 31.4 µM | 16.6 µM | 38.4 µM | 35.4 µM | > 100 µM | 29.1 µM | 78.5 µM | 86.3 µM | > 100 µM | > 100 µM |
| C=C1C(=O)O[C@@H]2C[C@@H](C)[C@@H]3C=CC(=O)[C@@]3(C)[C@@H](OC(=O)CCCC(=O)O[C@H]3[C@@H]4C(=C)C(=O)O[C@@H]4C[C@@H](C)[C@@H]4C=CC(=O)[C@]43C)[C@H]12 | – | 1.27 µM | – | 0.433 µM | – | – | – | – | 0.103 µM | – | 0.293 µM | – | 0.0329 µM | – | 3.8 µM | 1.45 µM |
| CCCC(=O)Nc1cc(/C=C/C(=O)N2C[C@@H]3C[C@]34C2=CC(=O)c2[nH]cc(C)c24)n(C)c1 | 0.114 µM | 0.687 µM and 0.37 µM | 0.143 µM | 1.96 µM and 0.55 µM | – | – | – | 0.0972 µM | 0.352 µM and 0.222 µM | – | 0.334 µM | 0.184 µM | 1.05 µM and 0.471 µM | – | 7.97 µM | 0.131 µM and 0.267 µM |
| Cc1cc(C)nc(NC(=O)COc2ccc(Cl)cc2)c1 | – | – | – | > 100 µM | – | – | – | – | > 100 µM | – | > 100 µM | – | > 100 µM | – | > 100 µM | – |
| CCNc1ccc2c(c1)C(=O)N(OS(C)(=O)=O)C2=O | – | > 100 µM | – | > 100 µM | – | – | – | – | > 100 µM | – | > 100 µM | – | > 100 µM | – | > 100 µM | > 100 µM |
